One test addresses KRAS G12D (Homo sapiens, UniProt P01116, G12D). The experiment in a line: GDP-GTP exchange assay (bodipy-GDP/GppNHp, SOS1), KRAS G12D. The format is biochemical. The settings on record: 2.5 nM bodipy-loaded KRAS G12D, 4 h pre-incubation, 2 h reaction with GppNHp and SOS1; for certain compounds the most potent isomer is quoted; read-out: KRAS_G12D exchange assay IC50. On the procedure: (§1) The inhibitor potency of the exemplified compounds was determined in a fluorescence based guanine nucleotide exchange assay, which measures the exchange of bodipy-GDP (fluorescently labeled GDP) for GppNHp (Non-hydrolyzable GTP analog) to generate the active state of KRAS in the presence of SOS1 (guanine nucleotide exchange factor). Inhibitors were serially diluted in DMSO and a volume of 0.1 μL was transferred to the wells of a black low volume 384-well plate. 5 µL/well volume of bodipy-loaded KRAS G12D diluted to 2.5 nM in assay buffer (25 mM Hepes pH 7.5, 50 mM NaCl, 10 mM MgCl2 and 0.01% Brij-35) was added to the plate and pre-incubated with inhibitor for 4 h at r.t. Appropriate controls (enzyme with no inhibitor or with a G12D inhibitor) were included on the plate. The exchange was initiated by the addition of a 5 μL/well volume containing 1 mM GppNHp and 300 nM SOS1 in assay buffer. The 10 μL/well reaction concentration of the bodipy-loaded KRAS G12D, GppNHp, and SOS1 were 2.5 nM, 500 μM, and 150 nM, respectively. The reaction plates were incubated at r.t. for 2 h, a time estimated for complete GDP-GTP exchange in the absence of inhibitor. For the KRAS G12V mutant, similar guanine nucleotide exchange assays were used with 2.5 nM as final concentration for the bodipy loaded KRAS proteins and 3 h incubation after adding GppNHp-SOS1 mixture. A cyclic peptide described to selectively bind G12D mutant (Sakamoto et al., BBRC 484.3 (2017), 605-611) or internal compounds with confirmed binding were used as positive controls in the assay plates. Fluorescence intensities were measured on a PheraStar plate reader instrument (BMG Labtech) with excitation at 485 nm and emission at 520 nm.
(§2) Either GraphPad prism or Genedata Screener SmartFit was used to analyze the data. The IC50 values were derived by fitting the data to a four parameter logistic equation producing a sigmoidal dose-response curve with a variable Hill coefficient.
(§3) The symbol “†” indicates IC50≤100 nM, “††” indicates IC50>100 nM but ≤1 μM; and “†††” indicates IC50 is >1 μM but ≤5 μM, “††††” indicates IC50 is >5 µM but ≤10 μM. “NA” indicates IC50 not available.

The target in the next test is KRAS G12V (Homo sapiens, UniProt P01116, G12V). In words: GDP-GTP exchange assay (bodipy-GDP/GppNHp, SOS1), KRAS G12V. In kind it is biochemical. The settings on record: 2.5 nM bodipy-loaded KRAS G12V, 3 h incubation after adding GppNHp-SOS1; for certain compounds the most potent isomer is quoted; read-out: KRAS_G12V exchange assay IC50. Here is the method:
as §1, §2, §3

The structures appear in SMILES notation. Some results are limits rather than exact numbers.

Chain of KRAS G12D (P01116 1-188 isoform P01116-2 G12D): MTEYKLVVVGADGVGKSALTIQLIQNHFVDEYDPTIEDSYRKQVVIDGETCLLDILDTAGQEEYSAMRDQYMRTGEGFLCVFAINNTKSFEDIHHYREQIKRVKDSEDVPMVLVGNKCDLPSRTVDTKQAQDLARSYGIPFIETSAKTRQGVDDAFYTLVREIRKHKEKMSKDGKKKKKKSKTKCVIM
Chain of KRAS G12V (P01116 1-188 isoform P01116-2 G12V): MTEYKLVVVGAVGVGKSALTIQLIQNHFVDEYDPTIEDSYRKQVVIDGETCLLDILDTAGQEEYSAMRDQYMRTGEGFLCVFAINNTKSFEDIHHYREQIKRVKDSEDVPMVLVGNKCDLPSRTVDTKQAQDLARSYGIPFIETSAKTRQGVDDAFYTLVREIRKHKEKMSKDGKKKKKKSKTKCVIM

What is called IC50 is the concentration that inhibits the measured activity by half. With `Cc1nc2c(F)c(-c3cccc(Cl)c3Cl)c(CCC#N)cc2c2c1cc([C@H]1[C@H]3C[C@H](C[C@@H]3C(F)F)N1C(=O)C1(F)CC1)n2[C@H]1[C@H]2CN[C@@H]1C2` (atropisomer, axis not shown; (Ra)) [Example 44, 3-((Ra)-1-((1R,4R,5S)-2-Azabicyclo[2.1.1]hexan-5-yl)-7-(2,3-dichlorophenyl)-2-((1R,3R,4S,5S)-5-(difluoromethyl)-2-(1-fluorocyclopropane-1-carbonyl)-2-azabicyclo[2.2.1]heptan-3-yl)-6-fluoro-4-methyl-1H-pyrrolo[3,2-c]quinolin-8-yl)propanenitrile], the IC50 on KRAS G12D and on KRAS G12V was ≤ 100 nM throughout.
In the case of `C[C@@H](O)c1nc2c(F)c(-c3cccc(Cl)c3Cl)c(CCC#N)cc2c2c1cc([C@H]1[C@H]3C[C@H](C[C@@H]3F)N1C(=O)C1(F)CC1)n2[C@H]1[C@H]2CN[C@@H]1C2` (single isomer, unassigned) [Example 8], the IC50 on KRAS G12D and on KRAS G12V was ≤ 100 nM in each case.
Turning to `C[C@@H](O)c1nc2c(F)c(-c3cccc(Cl)c3Cl)c(CCC#N)cc2c2c1cc([C@H]1[C@H]3C[C@H](C[C@@H]3OC(F)F)N1C(=O)C1(F)CC1)n2[C@H]1[C@H]2CN[C@@H]1C2` (single isomer, unassigned) [Example 37], the IC50 at KRAS G12D and at KRAS G12V was ≤ 100 nM in each case.
In the case of `C[C@@H](O)c1nc2c(F)c(-c3cccc(Cl)c3Cl)c(CCC#N)cc2c2c1cc([C@H]1[C@H]3C[C@H](C[C@@H]3OC3CC3)N1C(=O)C1(F)CC1)n2[C@H]1[C@H]2CN[C@@H]1C2` (single isomer, unassigned) [Example 38], the IC50 at KRAS G12D and at KRAS G12V was ≤ 100 nM each time.
As for `Cc1nc2c(F)c(-c3cccc(Cl)c3Cl)c(CCC#N)cc2c2c1cc([C@H]1[C@@H]3CC[C@@H](C3)N1C(=O)C1CC1)n2[C@H]1[C@H]2CN[C@@H]1C2` [Example 11, 3-(1-((1R,4R,5S)-2-azabicyclo[2.1.1]hexan-5-yl)-2-((1S,3R,4R)-2-(cyclopropanecarbonyl)-2-azabicyclo[2.2.1]heptan-3-yl)-7-(2,3-dichlorophenyl)-6-fluoro-4-methyl-1H-pyrrolo[3,2-c]quinolin-8-yl)propanenitrile], the IC50 on KRAS G12D and on KRAS G12V was ≤ 100 nM throughout.
`CN(C)C(=O)c1ccc(-c2nc3c(F)c(-c4cccc(Cl)c4Cl)c(CCC#N)cc3c3c2cc([C@H]2[C@@H]4CC[C@@H](C4)N2C(=O)C2CC2)n3[C@H]2[C@H]3CN[C@@H]2C3)cn1` [Example 12, 5-(1-((1R,4R,5S)-2-azabicyclo[2.1.1]hexan-5-yl)-8-(2-cyanoethyl)-2-((1S,3R,4R)-2-(cyclopropanecarbonyl)-2-azabicyclo[2.2.1]heptan-3-yl)-7-(2,3-dichlorophenyl)-6-fluoro-1H-pyrrolo[3,2-c]quinolin-4-yl)-N,N-dimethylpicolinamide]: the IC50 on KRAS G12D and on KRAS G12V was ≤ 100 nM in each case.
`CC(C)(O)c1ccc(-c2nc3c(F)c(-c4cccc(Cl)c4Cl)c(CCC#N)cc3c3c2cc([C@H]2[C@@H]4CC[C@@H](C4)N2C(=O)C2CC2)n3[C@H]2[C@H]3CN[C@@H]2C3)cn1` [Example 13, 3-(1-((1R,4R,5S)-2-azabicyclo[2.1.1]hexan-5-yl)-2-((1S,3R,4R)-2-(cyclopropanecarbonyl)-2-azabicyclo[2.2.1]heptan-3-yl)-7-(2,3-dichlorophenyl)-6-fluoro-4-(6-(2-hydroxypropan-2-yl)pyridin-3-yl)-1H-pyrrolo[3,2-c]quinolin-8-yl)propanenitrile]: the IC50 at KRAS G12D and at KRAS G12V was ≤ 100 nM throughout.
On to `CNC(=O)c1ccc(-c2nc3c(F)c(-c4cccc(Cl)c4Cl)c(CCC#N)cc3c3c2cc([C@H]2[C@@H]4CC[C@@H](C4)N2C(=O)C2CC2)n3[C@H]2[C@H]3CN[C@@H]2C3)cc1F` [Example 14, 4-(1-((1R,4R,5S)-2-azabicyclo[2.1.1]hexan-5-yl)-8-(2-cyanoethyl)-2-((1S,3R,4R)-2-(cyclopropanecarbonyl)-2-azabicyclo[2.2.1]heptan-3-yl)-7-(2,3-dichlorophenyl)-6-fluoro-1H-pyrrolo[3,2-c]quinolin-4-yl)-2-fluoro-N-methylbenzamide], for which the IC50 on KRAS G12D and at KRAS G12V was ≤ 100 nM each time.
For the molecule `CO[C@H]1C[C@H]2C[C@@H]1[C@H](c1cc3c(C)nc4c(F)c(-c5cccc(Cl)c5Cl)c(CCC#N)cc4c3n1[C@H]1[C@H]3CN[C@@H]1C3)N2C(=O)C1CC1` [Example 15, 3-(1-((1R,4R,5S)-2-azabicyclo[2.1.1]hexan-5-yl)-2-((1R,3R,4R,5S)-2-(cyclopropanecarbonyl)-5-methoxy-2-azabicyclo[2.2.1]heptan-3-yl)-7-(2,3-dichlorophenyl)-6-fluoro-4-methyl-1H-pyrrolo[3,2-c]quinolin-8-yl)propanenitrile], the IC50 on KRAS G12D and at KRAS G12V was ≤ 100 nM each time.
With `Cc1nc2c(F)c(-c3cccc(Cl)c3Cl)c(CCC#N)cc2c2c1cc([C@H]1[C@H]3C[C@H](C[C@@H]3O)N1C(=O)C1CC1)n2C1[C@H]2CN[C@@H]1C2` (stereo partly drawn) [Example 16, 3-(1-((1R,4R)-2-azabicyclo[2.1.1]hexan-5-yl)-2-((1R,3R,4R,5S)-2-(cyclopropanecarbonyl)-5-hydroxy-2-azabicyclo[2.2.1]heptan-3-yl)-7-(2,3-dichlorophenyl)-6-fluoro-4-methyl-1H-pyrrolo[3,2-c]quinolin-8-yl)propanenitrile], the IC50 at KRAS G12D and at KRAS G12V was ≤ 100 nM each time.
Turning to `Cc1nc2c(F)c(-c3cccc(Cl)c3Cl)c(CCC#N)cc2c2c1cc([C@H]1[C@H]3C[C@H](C[C@H]3F)N1C(=O)C1CC1)n2C1[C@H]2CN[C@@H]1C2` (stereo partly drawn) [Example 17, 3-(1-((1R,4R)-2-azabicyclo[2.1.1]hexan-5-yl)-2-((1R,3R,4R,5R)-2-(cyclopropanecarbonyl)-5-fluoro-2-azabicyclo[2.2.1]heptan-3-yl)-7-(2,3-dichlorophenyl)-6-fluoro-4-methyl-1H-pyrrolo[3,2-c]quinolin-8-yl)propanenitrile], the IC50 on KRAS G12D and at KRAS G12V was ≤ 100 nM throughout.
As for `Cc1nc2c(F)c(-c3cccc(Cl)c3Cl)c(CCC#N)cc2c2c1cc([C@H]1[C@H]3C[C@H](C[C@H]3C)N1C(=O)C1CC1)n2C1[C@H]2CN[C@@H]1C2` (stereo partly drawn) [Example 18, 3-(1-((1R,4R)-2-azabicyclo[2.1.1]hexan-5-yl)-2-((1S,3R,4S,5R)-2-(cyclopropanecarbonyl)-5-methyl-2-azabicyclo[2.2.1]heptan-3-yl)-7-(2,3-dichlorophenyl)-6-fluoro-4-methyl-1H-pyrrolo[3,2-c]quinolin-8-yl)propanenitrile], the IC50 on KRAS G12D and on KRAS G12V was ≤ 100 nM each time.
As to `Cc1nc2c(F)c(-c3cccc(Cl)c3Cl)c(CCC#N)cc2c2c1cc([C@H]1[C@H]3C[C@H](C[C@@H]3C)N1C(=O)C1CC1)n2C1[C@H]2CN[C@@H]1C2` (stereo partly drawn) [Example 19, 3-(1-((1R,4R)-2-azabicyclo[2.1.1]hexan-5-yl)-2-((1S,3R,4S,5S)-2-(cyclopropanecarbonyl)-5-methyl-2-azabicyclo[2.2.1]heptan-3-yl)-7-(2,3-dichlorophenyl)-6-fluoro-4-methyl-1H-pyrrolo[3,2-c]quinolin-8-yl)propanenitrile], the IC50 at KRAS G12D and on KRAS G12V was ≤ 100 nM in each case.

The record behind these values is patent US20240368156A1, “2-AZABICYCLO[2.2.1]HEPTANE KRAS INHIBITORS” (INCYTE CORPORATION, priority 2023, published 2024).
